Read-outs that look alike come from different tables or passages of the source.
How the values were obtained:
SARS-CoV-2 3CL protease = SARS-CoV-2 3CL protease (Severe acute respiratory syndrome coronavirus 2, UniProt P0DTD1); experiment: biochemical; conditions: 50% SARS-CoV-2 3CL protease inhibitory concentration, read-out: IC50
SARS-CoV-2 = experiment: microbe, parasite or virus in culture; assay type: cell-based; conditions: for EC50: Severe acute respiratory syndrome coronavirus 2, VeroE6/TMPRSS2, 72 h, 50% SARS-CoV-2 infected cell death inhibitory concentration, VeroE6/TMPRSS2 cells, 3 days culture

SMILES | IC50 (SARS-CoV-2 3CL protease; given as class symbols) | IC50 (SARS-CoV-2 3CL protease; RapidFire MS) | EC50 (SARS-CoV-2; class symbols) | EC50 (SARS-CoV-2; CellTiter-Glo 2.0) | coronavirus replication inhibitory activity (SARS-CoV-2; at concentrations up to 50 μM, tested as in Test Example 1 (Reference Example 1))
O=C1CCC(Nc2nc(=O)n(Cc3ccc[nH]c3=O)c(=O)n2Cc2cc(F)c(F)c(F)c2)CN1 (racemic) [Compound I-0133] | 1 to 10 µM | 3.4 µM | < 1 µM |  | 
COc1ccc(Nc2nc(=O)n(CC3CCNC3=O)c(=O)n2Cc2cc(F)c(F)c(F)c2)cc1 (racemic) [Compound I-0301] | 1 to 10 µM | 3.8 µM | < 1 µM |  | 
Cn1cnc(Cn2c(=O)nc(Nc3cc4cn(CC5CCO5)nc4cc3Cl)n(Cc3cc(Cl)c(F)cc3F)c2=O)n1 (racemic) [II-0408] | < 0.1 µM |  | 1 to 10 µM |  | 
Cn1cnc(Cn2c(=O)nc(Nc3cc4cn(CC5CCCO5)nc4cc3Cl)n(Cc3cc(Cl)c(F)cc3F)c2=O)n1 (racemic) [II-0409] | < 0.1 µM |  | 1 to 10 µM |  | 
Cc1nc2cc(Cl)c(Nc3nc(=O)n(Cc4ccc[nH]c4=O)c(=O)n3Cc3ccc(F)c(Cl)c3)cc2n1C [Compound I-0007] | < 0.1 µM |  | 1 to 10 µM |  | 
Cn1cc2cc(Nc3nc(=O)n(Cc4ccc[nH]c4=O)c(=O)n3Cc3cc(F)cc(Cl)c3)c(Cl)cc2n1 [Compound I-0008] | < 0.1 µM |  | 1 to 10 µM |  | 
Cn1cc2cc(Nc3nc(=O)n(Cc4ccc[nH]c4=O)c(=O)n3Cc3cc(F)c(F)cc3F)c(Cl)cc2n1 [Compound I-0009] | < 0.1 µM |  | < 1 µM |  | 
N#Cc1cc(Cn2c(Nc3cc4c(cc3Cl)OCC4)nc(=O)n(Cc3ccc[nH]c3=O)c2=O)cc(F)c1F [Compound I-0011] | < 0.1 µM |  | < 1 µM |  | 
Cn1cc2cc(Nc3nc(=O)n(Cc4ccc[nH]c4=O)c(=O)n3Cc3cc(F)c(F)c(C#N)c3)c(Cl)cc2n1 [Compound I-0012] | < 0.1 µM |  | 1 to 10 µM |  | 
N#Cc1cc(Cn2c(Nc3cc4c(cc3Cl)OCC4)nc(=O)n(Cc3ccc[nH]c3=O)c2=O)ccc1F [Compound I-0013] | < 0.1 µM |  | 1 to 10 µM |  | 
O=c1[nH]cccc1Cn1c(=O)nc(Nc2cc3c(cc2Cl)OCC3)n(Cc2cc(F)c(F)cc2F)c1=O [Compound I-0016] | < 0.1 µM |  | < 1 µM |  | 
O=c1[nH]cccc1Cn1c(=O)nc(Nc2ccc3c(c2)CCCO3)n(Cc2cc(F)c(F)c(F)c2)c1=O [Compound I-0019] | < 0.1 µM |  | 1 to 10 µM |  | 
COc1ccc(Nc2nc(=O)n(Cc3ccc[nH]c3=O)c(=O)n2Cc2cc(F)c(F)c(F)c2)cc1 [Compound I-0020] | < 0.1 µM |  | 1 to 10 µM |  | 
O=c1[nH]cccc1Cn1c(=O)nc(Nc2ccc3c(c2)CCO3)n(Cc2cc(F)c(F)c(F)c2)c1=O [Compound I-0025] | < 0.1 µM |  | 1 to 10 µM |  | 
COc1ccc(Nc2nc(=O)n(Cc3ccc[nH]c3=O)c(=O)n2Cc2cc(F)c(F)c(F)c2)c(F)c1 [Compound I-0026] | < 0.1 µM |  | 1 to 10 µM |  | 
O=c1[nH]cccc1Cn1c(=O)nc(Nc2cccc3[nH]ccc23)n(Cc2cc(F)c(F)c(F)c2)c1=O [Compound I-0031] | 0.1 to 1 µM | 0.13 µM | 1 to 10 µM | 4.06 µM | 
CS(=O)(=O)c1ccc(Nc2nc(=O)n(Cc3ccc[nH]c3=O)c(=O)n2Cc2cc(F)c(F)c(F)c2)cc1 [Compound I-0033] | 1 to 10 µM | 5.6 µM | < 1 µM |  | 
O=C(O)c1ccc(Nc2nc(=O)n(Cc3ccc[nH]c3=O)c(=O)n2Cc2cc(F)c(F)c(F)c2)cc1 [Compound I-0035] | 1 to 10 µM | 3.5 µM | < 1 µM |  | 
O=c1[nH]cccc1Cn1c(=O)nc(NC2CCS(=O)(=O)CC2)n(Cc2cc(F)c(F)c(F)c2)c1=O [Compound I-0038] | 1 to 10 µM | 1.3 µM | < 1 µM |  | 
COc1ccc(Nc2nc(=O)n(Cc3ccc[nH]c3=O)c(=O)n2Cc2cc(F)c(F)c(F)c2)c(OC)c1 [Compound I-0042] | < 0.1 µM |  | 1 to 10 µM |  | 
CN(C)C(=O)c1ccc(Cn2c(=O)nc(Nc3cc4c(cc3Cl)OCC4)n(Cc3cc(F)c(F)c(F)c3)c2=O)c(=O)[nH]1 [Compound I-0064] | < 0.1 µM |  | 1 to 10 µM |  | 
Cc1ccc(Cn2c(=O)nc(Nc3cccc(C(F)(F)F)c3)n(Cc3ccc(Cl)c(Cl)c3)c2=O)cc1 [Compound I-066, reference compound] |  |  |  |  | did not show coronavirus replication inhibitory activity
CN(C)C(=O)c1ccc(Cn2c(=O)nc(Nc3cc4cn(CC(F)F)nc4cc3Cl)n(Cc3cc(F)c(F)c(F)c3)c2=O)c(=O)[nH]1 [Compound I-0066] | < 0.1 µM |  | 1 to 10 µM |  | 
COc1ccc(Nc2nc(=O)n(Cc3cc(Cl)c[nH]c3=O)c(=O)n2Cc2cc(F)c(F)c(F)c2)cc1 [Compound I-0069] | < 0.1 µM |  | 1 to 10 µM |  | 
Cn1cc2cc(Nc3nc(=O)n(Cc4cc(Cl)c[nH]c4=O)c(=O)n3Cc3cc(F)c(F)c(F)c3)c(Cl)cc2n1 [Compound I-0077] | < 0.1 µM |  | < 1 µM |  | 

Source: patent US12559474B2, “Triazine derivatives having virus replication inhibitory activity and pharmaceutical composition comprising the same” (priority 2021, dated 2026)
